Assay results from ChEMBL document CHEMBL1201862, “PubChem BioAssay data set” (2004).
Calls of active or inactive are those of the source.

Key:
[1] = molecular target: Melanocortin receptor 4 (Homo sapiens, UniProt P32245); assay: MC4R antagonist potency on cAMP, dose response, cell-based, TR-FRET, biased antagonists (AID 602298); format: functional;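 further: antagonist potency against agonist-stimulated cAMP production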
[2] = molecular target: Potassium voltage-gated channel subfamily KQT member 2 (Rattus norvegicus, UniProt O88943, W236L); assay: KCNQ2 channel potentiators, dose response, mechanism study for KCNQ2 potentiator project, cell-based, automated electrophysiology (AID 2603); format: functional
Potassium voltage-gated channel subfamily KQT member 2, sequence (O88943 whole entry W236L): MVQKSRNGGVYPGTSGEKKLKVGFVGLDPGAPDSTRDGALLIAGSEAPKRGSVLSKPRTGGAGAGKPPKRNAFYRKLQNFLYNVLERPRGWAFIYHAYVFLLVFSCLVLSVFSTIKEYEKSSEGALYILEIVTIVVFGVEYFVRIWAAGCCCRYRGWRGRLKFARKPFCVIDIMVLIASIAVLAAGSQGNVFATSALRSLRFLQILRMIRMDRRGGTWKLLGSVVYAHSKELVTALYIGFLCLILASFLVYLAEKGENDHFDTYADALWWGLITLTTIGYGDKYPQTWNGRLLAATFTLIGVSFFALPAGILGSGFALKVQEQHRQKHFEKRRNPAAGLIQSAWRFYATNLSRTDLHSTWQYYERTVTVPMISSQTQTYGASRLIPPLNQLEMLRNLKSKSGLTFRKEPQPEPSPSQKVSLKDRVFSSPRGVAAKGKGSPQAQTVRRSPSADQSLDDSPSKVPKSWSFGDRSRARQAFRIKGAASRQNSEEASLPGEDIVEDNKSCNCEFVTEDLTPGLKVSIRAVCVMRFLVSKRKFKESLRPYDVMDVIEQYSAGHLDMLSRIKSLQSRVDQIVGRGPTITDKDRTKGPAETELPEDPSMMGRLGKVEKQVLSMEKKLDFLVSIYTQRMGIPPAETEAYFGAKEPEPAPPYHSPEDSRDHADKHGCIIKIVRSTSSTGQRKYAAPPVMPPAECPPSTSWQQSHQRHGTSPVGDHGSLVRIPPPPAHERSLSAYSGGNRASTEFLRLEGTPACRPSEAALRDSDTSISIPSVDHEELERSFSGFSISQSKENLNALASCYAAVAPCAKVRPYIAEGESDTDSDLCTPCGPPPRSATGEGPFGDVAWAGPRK

[3] = nonselective inhibitors of cellular cAMP signaling, dose response, counter-screen for MC4R biased antagonist project, cell-based, TR-FRET cAMP detection (AID 602305); format: functional;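 further: U2OS cells stimulated with forskolin near its EC80 as the cAMP inducer; potency is for inhibition of forskolin-stimulated cAMP signaling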
[4] = microbe, parasite or virus in culture; format: functional; conditions: Mycobacterium tuberculosis
[5] = system: Vero; assay: cells; format: functional; conditions: Chlorocebus sabaeus
[6] = A High Throughput Confirmatory Assay used to Identify Novel Compounds that Inhibit Mycobacterium Tuberculosis in the absence of Glycerol.; format: functional
[7] = inhibitors of intracellular T. cruzi replication, confirmation, NIH3T3 host cells, beta-gal luminescence (AID 2044); format: functional, cell-based;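 further: intracellular parasites grown in NIH/3T3 mouse fibroblasts as host cells; luminescent beta-galactosidase reporter signal from transgenic T. cruzi replicating inside host cells; inhibitors lower the luminescence signal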
[8] = cells
[9] = cytotoxicity toward NIH3T3 fibroblasts, dose response, counter-screen, cell-based, ATP luminescence, mouse fibroblasts (AID 2010); format: functional;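 further: cells exposed to compound for about 90 hours before reading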
[10] = molecular target: Photoreceptor-specific nuclear receptor (Homo sapiens, UniProt Q9Y5X4); assay: NR2E3 inverse agonists, dose response, biochemical, TR-FRET (AID 463256); format: functional
Photoreceptor-specific nuclear receptor, sequence (Q9Y5X4 whole entry): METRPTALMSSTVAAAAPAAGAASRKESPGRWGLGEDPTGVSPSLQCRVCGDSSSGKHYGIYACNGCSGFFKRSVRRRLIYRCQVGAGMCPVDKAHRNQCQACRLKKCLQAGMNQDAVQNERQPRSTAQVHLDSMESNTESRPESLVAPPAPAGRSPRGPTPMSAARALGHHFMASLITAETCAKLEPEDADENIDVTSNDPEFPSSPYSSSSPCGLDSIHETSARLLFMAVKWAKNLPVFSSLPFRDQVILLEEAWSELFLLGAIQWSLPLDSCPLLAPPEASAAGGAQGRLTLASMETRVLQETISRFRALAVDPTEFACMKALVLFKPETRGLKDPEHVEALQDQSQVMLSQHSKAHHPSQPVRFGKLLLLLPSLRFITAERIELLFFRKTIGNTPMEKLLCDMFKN

[11] = molecular target: Peroxisome proliferator-activated receptor gamma/Nuclear receptor corepressor 2 (Homo sapiens, UniProt P37231+Q9Y618); assay: Counterscreen for NR2E3 inverse agonists: TR-FRET-based biochemical high throughput dose response assay to identify inverse agonists of the interaction between peroxisome proliferator-activated receptor gamma (PPARg) and nuclear receptor co-repressor 2 (NCOR2).; format: functional
Peroxisome proliferator-activated receptor gamma/Nuclear receptor corepressor 2, sequence (P37231 whole entry): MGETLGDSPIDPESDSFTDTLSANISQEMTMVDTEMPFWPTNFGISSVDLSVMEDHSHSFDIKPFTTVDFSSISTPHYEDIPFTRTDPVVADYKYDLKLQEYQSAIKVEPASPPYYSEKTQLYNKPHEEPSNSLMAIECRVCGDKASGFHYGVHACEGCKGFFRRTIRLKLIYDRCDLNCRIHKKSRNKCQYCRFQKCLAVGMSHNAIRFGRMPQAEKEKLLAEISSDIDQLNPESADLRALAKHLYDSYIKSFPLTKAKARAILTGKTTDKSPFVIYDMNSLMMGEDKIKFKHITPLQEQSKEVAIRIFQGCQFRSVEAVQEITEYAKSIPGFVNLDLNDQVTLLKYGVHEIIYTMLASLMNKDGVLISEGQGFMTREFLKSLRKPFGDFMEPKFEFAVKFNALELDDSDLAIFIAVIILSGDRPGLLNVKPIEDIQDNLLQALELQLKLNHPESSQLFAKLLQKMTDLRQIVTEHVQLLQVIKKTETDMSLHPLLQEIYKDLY
Peroxisome proliferator-activated receptor gamma/Nuclear receptor corepressor 2, sequence (Q9Y618 whole entry): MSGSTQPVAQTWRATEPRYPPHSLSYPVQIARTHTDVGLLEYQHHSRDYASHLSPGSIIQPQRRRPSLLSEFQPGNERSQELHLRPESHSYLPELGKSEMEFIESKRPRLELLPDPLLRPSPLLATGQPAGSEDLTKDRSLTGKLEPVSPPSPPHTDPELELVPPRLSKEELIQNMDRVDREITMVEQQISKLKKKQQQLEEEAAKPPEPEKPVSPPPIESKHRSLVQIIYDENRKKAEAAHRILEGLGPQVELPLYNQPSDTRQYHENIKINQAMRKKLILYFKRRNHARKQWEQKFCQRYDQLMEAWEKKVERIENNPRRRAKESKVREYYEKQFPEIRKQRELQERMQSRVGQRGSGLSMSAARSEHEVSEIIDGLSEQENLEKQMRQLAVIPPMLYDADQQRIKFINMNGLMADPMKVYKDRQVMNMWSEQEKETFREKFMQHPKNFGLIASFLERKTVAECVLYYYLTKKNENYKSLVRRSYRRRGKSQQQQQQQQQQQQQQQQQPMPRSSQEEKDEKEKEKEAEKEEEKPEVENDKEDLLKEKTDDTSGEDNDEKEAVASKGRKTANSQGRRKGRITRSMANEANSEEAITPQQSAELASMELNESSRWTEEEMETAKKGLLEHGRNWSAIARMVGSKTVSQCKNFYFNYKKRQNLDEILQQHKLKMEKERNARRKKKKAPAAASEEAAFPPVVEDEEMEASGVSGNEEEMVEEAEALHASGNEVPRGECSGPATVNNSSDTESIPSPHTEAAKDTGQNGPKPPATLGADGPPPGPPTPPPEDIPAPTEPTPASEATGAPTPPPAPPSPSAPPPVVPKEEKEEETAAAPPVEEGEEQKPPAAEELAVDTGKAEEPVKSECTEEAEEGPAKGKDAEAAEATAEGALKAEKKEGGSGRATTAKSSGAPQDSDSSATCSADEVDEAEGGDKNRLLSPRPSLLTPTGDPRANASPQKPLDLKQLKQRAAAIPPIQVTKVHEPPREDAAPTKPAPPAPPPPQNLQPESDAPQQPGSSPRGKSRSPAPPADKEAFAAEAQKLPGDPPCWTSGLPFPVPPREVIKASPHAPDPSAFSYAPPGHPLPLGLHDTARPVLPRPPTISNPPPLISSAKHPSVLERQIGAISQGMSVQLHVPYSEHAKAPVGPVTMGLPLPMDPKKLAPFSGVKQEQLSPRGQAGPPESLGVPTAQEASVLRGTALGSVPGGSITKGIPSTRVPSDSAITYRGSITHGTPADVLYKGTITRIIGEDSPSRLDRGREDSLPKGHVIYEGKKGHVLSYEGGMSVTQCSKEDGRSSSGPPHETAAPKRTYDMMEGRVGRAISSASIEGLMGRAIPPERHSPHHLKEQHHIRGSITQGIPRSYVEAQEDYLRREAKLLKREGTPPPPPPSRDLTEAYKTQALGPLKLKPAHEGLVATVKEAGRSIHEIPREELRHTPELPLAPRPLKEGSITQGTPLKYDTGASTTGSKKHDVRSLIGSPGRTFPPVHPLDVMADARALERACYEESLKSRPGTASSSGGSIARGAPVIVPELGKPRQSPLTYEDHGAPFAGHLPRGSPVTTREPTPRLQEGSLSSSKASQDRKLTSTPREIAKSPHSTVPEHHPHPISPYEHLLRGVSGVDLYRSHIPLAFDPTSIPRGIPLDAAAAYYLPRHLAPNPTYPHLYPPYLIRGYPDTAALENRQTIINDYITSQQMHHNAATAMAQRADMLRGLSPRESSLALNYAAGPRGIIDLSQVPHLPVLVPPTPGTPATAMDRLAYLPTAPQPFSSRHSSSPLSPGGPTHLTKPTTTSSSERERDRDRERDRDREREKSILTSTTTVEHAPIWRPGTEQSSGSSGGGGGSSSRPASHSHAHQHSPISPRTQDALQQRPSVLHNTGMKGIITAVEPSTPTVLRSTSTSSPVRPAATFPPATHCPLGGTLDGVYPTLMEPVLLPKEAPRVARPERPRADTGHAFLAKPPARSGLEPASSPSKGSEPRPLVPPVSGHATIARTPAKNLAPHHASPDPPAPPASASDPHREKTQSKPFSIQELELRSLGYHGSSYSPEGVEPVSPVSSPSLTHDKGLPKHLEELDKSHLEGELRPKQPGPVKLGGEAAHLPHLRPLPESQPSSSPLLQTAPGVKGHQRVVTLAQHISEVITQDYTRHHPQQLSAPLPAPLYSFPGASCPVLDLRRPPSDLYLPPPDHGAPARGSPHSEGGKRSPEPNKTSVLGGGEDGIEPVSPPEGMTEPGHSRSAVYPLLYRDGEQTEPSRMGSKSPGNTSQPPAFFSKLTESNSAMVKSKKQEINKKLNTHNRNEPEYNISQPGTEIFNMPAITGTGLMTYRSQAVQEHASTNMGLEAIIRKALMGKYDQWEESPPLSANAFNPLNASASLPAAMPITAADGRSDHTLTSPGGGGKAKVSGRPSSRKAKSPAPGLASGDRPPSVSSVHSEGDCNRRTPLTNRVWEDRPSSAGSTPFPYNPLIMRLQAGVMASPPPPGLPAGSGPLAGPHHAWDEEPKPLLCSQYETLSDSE

[12] = molecular target: Diphosphomevalonate decarboxylase (Streptococcus pneumoniae serotype 2 (strain D39 / NCTC 7466), UniProt Q9FD53); assay: S. pneumoniae DPM-DC inhibition retest, confirmation, biochemical, cuvette format, coupled NADH fluorescence (AID 1028); format: functional
Diphosphomevalonate decarboxylase, sequence (Q9FD53 whole entry): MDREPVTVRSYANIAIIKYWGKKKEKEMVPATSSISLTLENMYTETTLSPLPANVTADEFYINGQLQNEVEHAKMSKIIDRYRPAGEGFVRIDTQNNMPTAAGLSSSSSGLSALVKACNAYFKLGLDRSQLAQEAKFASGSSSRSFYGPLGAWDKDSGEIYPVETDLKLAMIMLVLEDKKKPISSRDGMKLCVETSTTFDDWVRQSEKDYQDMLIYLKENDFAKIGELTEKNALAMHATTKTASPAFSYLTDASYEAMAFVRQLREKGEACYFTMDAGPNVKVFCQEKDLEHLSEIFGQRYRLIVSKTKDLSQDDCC

[13] = molecular target: T1, Tyrosine-protein phosphatase non-receptor type 7 (Homo sapiens, UniProt P35236); assay: inhibitors of human HePTP phosphatase, […], biochemical, absorbance, leukemia target (AID 521); format: functional
T1 sequence (P35236 whole entry): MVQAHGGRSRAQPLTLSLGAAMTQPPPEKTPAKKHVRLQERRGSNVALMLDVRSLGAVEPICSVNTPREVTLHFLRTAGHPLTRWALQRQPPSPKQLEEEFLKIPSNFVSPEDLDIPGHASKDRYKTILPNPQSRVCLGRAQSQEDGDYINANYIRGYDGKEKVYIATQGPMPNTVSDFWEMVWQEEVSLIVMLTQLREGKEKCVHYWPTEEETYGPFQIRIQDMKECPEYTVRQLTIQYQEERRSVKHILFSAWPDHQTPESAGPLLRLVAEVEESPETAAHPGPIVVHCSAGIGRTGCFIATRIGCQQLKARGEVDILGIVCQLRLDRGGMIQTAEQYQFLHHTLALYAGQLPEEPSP

Melanocortin receptor 4, sequence (P32245 whole entry): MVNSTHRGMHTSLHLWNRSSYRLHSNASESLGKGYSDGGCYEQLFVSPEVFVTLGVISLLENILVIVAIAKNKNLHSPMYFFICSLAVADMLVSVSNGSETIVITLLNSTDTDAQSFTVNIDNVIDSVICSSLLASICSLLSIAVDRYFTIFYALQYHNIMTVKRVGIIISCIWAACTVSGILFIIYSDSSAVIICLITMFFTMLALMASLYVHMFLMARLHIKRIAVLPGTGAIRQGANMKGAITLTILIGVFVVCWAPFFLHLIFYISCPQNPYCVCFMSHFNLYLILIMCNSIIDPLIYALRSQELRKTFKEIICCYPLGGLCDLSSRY

COC(=O)CSc1[nH]c2ccc(F)cc2c1[N+](=O)[O-]
IC50 [1]: > 64.6 µM (inactive)
EC50 [2]: 0.17 µM (active)
IC50 [3]: > 64.6 µM (inactive)

CC(C(Sc1ccccc1N)c1ccccc1)[N+](=O)[O-] (stereo not drawn)
CC50 [4]: 32.6 µM (active)
CC50 [5]: 16.6 µM (active)
IC50 [6]: > 100 µM (active)

CN1CCc2c(sc3c2c(=O)n(-c2ccccc2)c2nnc(SCc4ccc(Cl)cc4)n32)C1
EC50 [7]: < 0.1 µM (active)
EC50 [8]: < 0.004 µM (active)
EC50 [9]: > 60 µM (not active)

CC(=O)c1sc(NS(=O)(=O)c2ccc(C)cc2)nc1-c1ccccc1
IC50 [10]: > 39.8 µM (not active)
IC50 [11]: > 39.8 µM (not active)

O=C(NCC1CC1)c1ccc(-n2sc3ccccc3c2=O)cc1
IC50 [12]: 11.9 µM (active)

COCC(=O)N1CCC(n2nnc3cc(F)ccc32)CC1
IC50 [13]: > 100 µM (not active)
